Results as given in ChEMBL document CHEMBL1201862, “PubChem BioAssay data set” (2004).
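Each compound was tested at five concentrations against cells in 96-well plates for 48 hours. GI50 is the concentration that inhibits growth by half.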 Calls of active or inactive are those of the source. No stated cut-off is given here; in the data, active = GI50 up to about 1.1 µM and inactive = higher.

Tests used:
Experiment in all cases: NCI-60 cell line screen, 48 h
[1] = tested on: ACHN
[2] = tested on: EKVX
[3] = tested on: HT-29
[4] = tested on: IGROV-1
[5] = tested on: M14
[6] = tested on: MDA-MB-435
[7] = tested on: NCI/ADR-RES
[8] = tested on: OVCAR-3
[9] = tested on: OVCAR-5
[10] = tested on: PC-3
[11] = tested on: RPMI-8226
[12] = tested on: SF-268
[13] = tested on: SK-MEL-2
[14] = tested on: SK-OV-3
[15] = tested on: SN12C
[16] = tested on: UACC-257
[17] = tested on: UACC-62
[18] = tested on: UO-31
[19] = tested on: HOP-92
[20] = tested on: SR

| Structure (SMILES) | GI50 [1] | GI50 [2] | GI50 [3] | GI50 [4] | GI50 [5] | GI50 [6] | GI50 [7] | GI50 [8] | GI50 [9] | GI50 [10] | GI50 [11] | GI50 [12] | GI50 [13] | GI50 [14] | GI50 [15] | GI50 [16] | GI50 [17] | GI50 [18] | GI50 [19] | GI50 [20] |
| --- | --- | --- | --- | --- | --- | --- | --- | --- | --- | --- | --- | --- | --- | --- | --- | --- | --- | --- | --- | --- |
| CC1CC(NN)=Nc2ccccc2N1 (stereo not given) | > 100 µM (inactive) | > 100 µM (inactive) | > 100 µM (inactive) | > 100 µM (inactive) | > 100 µM (inactive) | > 100 µM (inactive) | > 100 µM (inactive) | > 100 µM (inactive) | > 100 µM (inactive) | > 100 µM (inactive) | 65.9 µM (inactive) | > 100 µM (inactive) | > 100 µM (inactive) | > 100 µM (inactive) | > 100 µM (inactive) | > 100 µM (inactive) | > 100 µM (inactive) | > 100 µM (inactive) | – | – |
| CC1=NNC(=O)C1C1CC(c2c[nH]c3ccccc23)=NNC1=S (stereo not given) | > 100 µM (inactive) | 28.4 µM (inactive) | > 100 µM (inactive) | – | > 100 µM (inactive) | 94.4 µM (inactive) | > 100 µM (inactive) | > 100 µM (inactive) | > 100 µM (inactive) | > 100 µM (inactive) | 36.2 µM (inactive) | > 100 µM (inactive) | > 100 µM (inactive) | > 100 µM (inactive) | > 100 µM (inactive) | > 100 µM (inactive) | > 100 µM (inactive) | 30.6 µM (inactive) | > 100 µM (inactive) | – |
| CCc1[nH]c(=O)c2oc3cc4ccccc4cc3c2c1C(=O)O | > 10 µM (inactive) | > 10 µM (inactive) | > 10 µM (inactive) | 0.001 µM (active) | > 10 µM (inactive) | – | > 10 µM (inactive) | > 10 µM (inactive) | > 10 µM (inactive) | > 10 µM (inactive) | – | > 10 µM (inactive) | > 10 µM (inactive) | – | > 10 µM (inactive) | > 10 µM (inactive) | – | > 10 µM (inactive) | > 10 µM (inactive) | > 10 µM (inactive) |
| O=S(=O)(N/C(=N\O)Nc1ccc(Cl)cc1)c1cc2ccccc2o1 | 19.5 µM (inactive) | 18.6 µM (inactive) | 22.9 µM (inactive) | 12.6 µM (inactive) | 21.2 µM (inactive) | 12.2 µM (inactive) | 19.8 µM (inactive) | 13.1 µM (inactive) | 23.6 µM (inactive) | 25.4 µM (inactive) | – | 18.3 µM (inactive) | 16.6 µM (inactive) | 19.3 µM (inactive) | 18.1 µM (inactive) | 19.5 µM (inactive) | 10.9 µM (inactive) | 46.7 µM (inactive) | 13.3 µM (inactive) | – |
| COc1cccc2c(NNc3ccc(Cl)cc3)c3ccc([N+](=O)[O-])cc3nc12 | 5.68 µM (inactive) | 12.5 µM (inactive) | 14.2 µM (inactive) | – | 12.3 µM (inactive) | 29.7 µM (inactive) | – | 12.5 µM (inactive) | 22.9 µM (inactive) | 8.91 µM (inactive) | 14.3 µM (inactive) | 12.7 µM (inactive) | 13 µM (inactive) | 15.1 µM (inactive) | 20.8 µM (inactive) | 19.2 µM (inactive) | 8.38 µM (inactive) | 5.33 µM (inactive) | 10.9 µM (inactive) | 1.08 µM (active) |
| O=C(Cc1csc(-c2nc(CC(=O)NNc3ccccc3)cs2)n1)NNc1ccccc1 | > 100 µM (inactive) | > 100 µM (inactive) | 71.1 µM (inactive) | > 100 µM (inactive) | > 100 µM (inactive) | – | – | > 100 µM (inactive) | > 100 µM (inactive) | – | > 100 µM (inactive) | > 100 µM (inactive) | > 100 µM (inactive) | > 100 µM (inactive) | > 100 µM (inactive) | > 100 µM (inactive) | > 100 µM (inactive) | > 100 µM (inactive) | > 100 µM (inactive) | 25.5 µM (inactive) |
